Laboratory results as given in patent US20010014347A1, “WETTABLE OR WATER-SOLUBLE GRANULAR AGROCHEMICAL COMPOSITION” (priority 1997, published 2001).

Assay: Solubility in water
Assay type: physicochemical
Details: water at 20° C.

Which solubility does the source give for CN/C(=N\[N+](=O)[O-])NCc1cnc(Cl)s1 [compound (II)] here?
Its solubility is at most 300 µg/mL.
